Measurements published in paper PMC3409115, “Diverse Inhibitor Chemotypes Targeting Trypanosoma cruzi CYP51” (PLoS Neglected Tropical Diseases, 2012).
pEC50: −log10 of the molar value. Where two headings read alike, the source gives them in different places.

How the values were obtained:
[1] = tested on: T. cruzi-infected skeletal myoblasts (intracellular amastigotes); assay: Hit cross-validation in T. cruzi-infected mammalian cells (image-based assay); type: cell-based, Trypanosoma cruzi; details: for Intracellular amastigotes in DAPI images after 72 h treatment: Compound 1 at 0.123 µM and 10 µM, Compound 13 at 10 µM; for pEC50: Trypanosoma cruzi, Myoblast
[2] = tested on: host cell (skeletal myoblasts, bovine embryo skeletal muscle or C2C12); assay: Host cell toxicity in the cross-validation assay; type: cell-based; details: host cells in cross-validation assay, up to 10 µM

SMILES: Brc1ccccc1OCCCCCCn1ccnc1 [Compound 1]
- Intracellular amastigotes in DAPI images after 72 h treatment [1]: elimination of intracellular amastigotes
- pEC50 ([1]; 72 h, T. cruzi-infected myoblasts, 72 h treatment, read-out: EC50 in image-based HTS cross-validation assay): 7.15
- pEC50 ([1]; in Mus musculus, T. cruzi amastigotes cultured in mouse myoblasts, averaged from two independent assays, read-out: EC50 in low throughput validation (repurchased hit)): 7.77
- Toxicity score (highest percentage of host cell growth inhibition) [2]: 2 (2-21-30%)

SMILES: O=C(c1ccc(Cl)cc1)C(Oc1ccc(Cl)cc1)n1cncn1 (centres unmarked) [Compound 13, 2-(4-chlorophenoxy)-1-(4-chlorophenyl)-2-(1H-1,2,4-triazol-1-yl)ethanone]
- Intracellular amastigotes in DAPI images after 72 h treatment [1]: elimination of intracellular amastigotes
- pEC50 ([1]; 72 h, T. cruzi-infected myoblasts, 72 h treatment, repurchased compound, read-out: EC50 averaged from two independent cross-validation assays for individually repurchased hits): 5.89
- pEC50 ([1]; 72 h, T. cruzi-infected myoblasts, 72 h treatment, read-out: EC50 against T. cruzi parasites in HTS assay used to rank order the hits): 5.88
- Toxicity score (highest percentage of host cell growth inhibition) [2]: 3 (3- 31-40%)
